Assay results from the CheMixHub viscosity set.

Assay: xn = mol fraction of the nth substance listed

CCOC(C)=O + CCCCCC
Conditions	viscosity [mPa·s]
293.15 K, 101 kPa, x1 = 0.0998	0.3115
293.15 K, 101 kPa, x1 = 0.2074	0.3152
293.15 K, 101 kPa, x1 = 0.2978	0.3217
293.15 K, 101 kPa, x1 = 0.4046	0.3303
293.15 K, 101 kPa, x1 = 0.5034	0.3416
293.15 K, 101 kPa, x1 = 0.614	0.3599
293.15 K, 101 kPa, x1 = 0.6748	0.3683
293.15 K, 101 kPa, x1 = 0.8018	0.3963
293.15 K, 101 kPa, x1 = 0.9118	0.4248
298.15 K, 101 kPa, x1 = 0.0436	0.29
298.15 K, 101 kPa, x1 = 0.0998	0.2967
298.15 K, 101 kPa, x1 = 0.15	0.293
298.15 K, 101 kPa, x1 = 0.2074	0.3001
298.15 K, 101 kPa, x1 = 0.2504	0.298
298.15 K, 101 kPa, x1 = 0.2978	0.3052
298.15 K, 101 kPa, x1 = 0.3494	0.305
298.15 K, 101 kPa, x1 = 0.4046	0.3142
298.15 K, 101 kPa, x1 = 0.4477	0.314
298.15 K, 101 kPa, x1 = 0.4908	0.319
298.15 K, 101 kPa, x1 = 0.5034	0.3265
298.15 K, 101 kPa, x1 = 0.5489	0.326
298.15 K, 101 kPa, x1 = 0.614	0.3413
298.15 K, 101 kPa, x1 = 0.6485	0.342
298.15 K, 101 kPa, x1 = 0.6748	0.3496
298.15 K, 101 kPa, x1 = 0.7513	0.361
298.15 K, 101 kPa, x1 = 0.8018	0.3755
298.15 K, 101 kPa, x1 = 0.8507	0.384
298.15 K, 101 kPa, x1 = 0.9118	0.402
298.15 K, 101 kPa, x1 = 0.942	0.41
303.15 K, 101 kPa, x1 = 0.0998	0.283
303.15 K, 101 kPa, x1 = 0.2032	0.2874
303.15 K, 101 kPa, x1 = 0.2074	0.2861
303.15 K, 101 kPa, x1 = 0.2978	0.2901
303.15 K, 101 kPa, x1 = 0.4017	0.3009
303.15 K, 101 kPa, x1 = 0.4046	0.2991
303.15 K, 101 kPa, x1 = 0.5013	0.3117
303.15 K, 101 kPa, x1 = 0.5034	0.3092
303.15 K, 101 kPa, x1 = 0.599	0.3249
303.15 K, 101 kPa, x1 = 0.614	0.3231
303.15 K, 101 kPa, x1 = 0.6748	0.3317
303.15 K, 101 kPa, x1 = 0.8018	0.3565
303.15 K, 101 kPa, x1 = 0.8203	0.3611
303.15 K, 101 kPa, x1 = 0.9118	0.3812
303.15 K, 101.3 kPa, x1 = 0.106	0.2774
303.15 K, 101.3 kPa, x1 = 0.1995	0.2799
303.15 K, 101.3 kPa, x1 = 0.3097	0.2869
303.15 K, 101.3 kPa, x1 = 0.4073	0.2945
303.15 K, 101.3 kPa, x1 = 0.5055	0.3045
303.15 K, 101.3 kPa, x1 = 0.6094	0.3179
303.15 K, 101.3 kPa, x1 = 0.7062	0.3331
303.15 K, 101.3 kPa, x1 = 0.8061	0.3523
303.15 K, 101.3 kPa, x1 = 0.9036	0.3748
308.15 K, 101 kPa, x1 = 0.0436	0.272
308.15 K, 101 kPa, x1 = 0.15	0.274
308.15 K, 101 kPa, x1 = 0.2504	0.277
308.15 K, 101 kPa, x1 = 0.3494	0.282
308.15 K, 101 kPa, x1 = 0.4477	0.29
308.15 K, 101 kPa, x1 = 0.4908	0.294
308.15 K, 101 kPa, x1 = 0.5489	0.3
308.15 K, 101 kPa, x1 = 0.6485	0.313
308.15 K, 101 kPa, x1 = 0.7513	0.33
308.15 K, 101 kPa, x1 = 0.8507	0.349
308.15 K, 101 kPa, x1 = 0.942	0.371
313.15 K, 101 kPa, x1 = 0.0998	0.2582
313.15 K, 101 kPa, x1 = 0.2074	0.2604
313.15 K, 101 kPa, x1 = 0.2978	0.2643
313.15 K, 101 kPa, x1 = 0.4046	0.2723
313.15 K, 101 kPa, x1 = 0.5034	0.2806
313.15 K, 101 kPa, x1 = 0.614	0.2933
313.15 K, 101 kPa, x1 = 0.6748	0.3004
313.15 K, 101 kPa, x1 = 0.8018	0.3224
313.15 K, 101 kPa, x1 = 0.9118	0.3443

Clc1cccc(Cl)c1 + CCCCCC
viscosity [mPa·s], 100 kPa
Conditions	298.15 K	308.15 K	318.15 K
x1 = 0.0593	0.327	0.301	0.282
x1 = 0.1575	0.36	0.331	0.309
x1 = 0.255	0.4	0.368	0.338
x1 = 0.3473	0.446	0.407	0.37
x1 = 0.4204	0.487	0.442	0.4
x1 = 0.48	0.524	0.473	0.427
x1 = 0.5322	0.56	0.504	0.454
x1 = 0.5704	0.588	0.528	0.475
x1 = 0.6295	0.634	0.568	0.51
x1 = 0.6705	0.669	0.598	0.537
x1 = 0.7263	0.719	0.642	0.577
x1 = 0.8186	0.81	0.724	0.649
x1 = 0.9465	0.952	0.851	0.76

CCOC(C)=O + CCCCCCC
296 K, 101.3 kPa
Conditions	viscosity [mPa·s]
x1 = 0.0713	0.391
x1 = 0.1748	0.385
x1 = 0.2448	0.382
x1 = 0.3468	0.382
x1 = 0.4832	0.383
x1 = 0.4946	0.381
x1 = 0.5009	0.382
x1 = 0.5867	0.387
x1 = 0.6508	0.392
x1 = 0.7653	0.403
x1 = 0.8485	0.413
x1 = 0.8885	0.42

COC(=O)CC(C)=O + CCCCCCC(C)O
viscosity [mPa·s], 101.3 kPa
Conditions	x1 = 0.1041	x1 = 0.2072	x1 = 0.3091	x1 = 0.4101	x1 = 0.5107	x1 = 0.6079	x1 = 0.7081	x1 = 0.807	x1 = 0.9036
298.15 K	4.231	3.315	2.753	2.358	2.075	1.9	1.699	1.574	1.52
303.15 K	3.511	2.796	2.344	2.026	1.796	1.661	1.506	1.413	1.374
308.15 K	2.939	2.377	2.015	1.756	1.567	1.476	1.352	1.279	1.251

CCCCCCCCCCCCCCCCCCCl + CCCCCCCCCC
298 K, 101.3 kPa
Conditions	viscosity [mPa·s]
x2 = 0.1067	6.162
x2 = 0.2123	5.192
x2 = 0.3131	4.379
x2 = 0.3996	3.651
x2 = 0.508	2.885
x2 = 0.6105	2.385
x2 = 0.7027	1.919
x2 = 0.8012	1.487
x2 = 0.8979	1.145

CCCCCCCCCCCC(=O)OC + CCCCCCCCCC(=O)OCC
viscosity [mPa·s], 100 kPa
Conditions	298.15 K	308.15 K	318.15 K
x2 = 0.04836	2.784	2.203	1.856
x2 = 0.1051	2.725	2.165	1.824
x2 = 0.1954	2.649	2.106	1.778
x2 = 0.3128	2.556	2.041	1.723
x2 = 0.4082	2.482	1.988	1.677
x2 = 0.5008	2.417	1.945	1.639
x2 = 0.5987	2.348	1.897	1.601
x2 = 0.6571	2.307	1.87	1.582
x2 = 0.7044	2.274	1.849	1.567
x2 = 0.8	2.211	1.806	1.533
x2 = 0.8986	2.147	1.763	1.497

CCCCCCCCCCCC(=O)OC + CCCCCCCCCCCC
viscosity [mPa·s], 100 kPa
Conditions	x2 = 0.0991	x2 = 0.2004	x2 = 0.3006	x2 = 0.3991	x2 = 0.5003	x2 = 0.6	x2 = 0.6997	x2 = 0.8005	x2 = 0.8995
293.15 K	2.863	2.631	2.435	2.242	2.09	1.931	1.789	1.671	1.564
298.15 K	2.554	2.356	2.185	2.009	1.883	1.749	1.624	1.514	1.425
303.15 K	2.296	2.126	1.975	1.83	1.71	1.595	1.485	1.391	1.308
308.15 K	2.081	1.93	1.797	1.671	1.563	1.461	1.363	1.28	1.205
313.15 K	1.896	1.763	1.644	1.526	1.436	1.344	1.257	1.183	1.116
318.15 K	1.735	1.616	1.511	1.402	1.318	1.243	1.164	1.098	1.037
323.15 K	1.594	1.489	1.395	1.299	1.223	1.153	1.082	1.022	0.967

CCCCCCCCCCCCCCCCCCCl + CCCCCCCCCCCC
298 K, 101.3 kPa
Conditions	viscosity [mPa·s]
x2 = 0.1097	6.289
x2 = 0.2096	5.429
x2 = 0.3134	4.684
x2 = 0.4067	4
x2 = 0.5044	3.481
x2 = 0.6047	2.887
x2 = 0.6853	2.488
x2 = 0.805	2.012
x2 = 0.8971	1.662

CCOc1ccccc1 + CCCCCCCCCCO
viscosity [mPa·s], 101.3 kPa
Conditions	x1 = 0.0999	x1 = 0.2011	x1 = 0.2996	x1 = 0.4003	x1 = 0.5011	x1 = 0.6025	x1 = 0.6998	x1 = 0.8007	x1 = 0.9012
293.15 K	11.33	8.76	6.789	5.22	4.017	3.116	2.486	2.001	1.637
298.15 K	9.33	7.335	5.786	4.5	3.502	2.729	2.188	1.79	1.501
308.15 K	6.907	5.541	4.402	3.45	2.705	2.149	1.724	1.397	1.144
318.15 K	4.863	3.962	3.226	2.613	2.125	1.726	1.414	1.147	0.9405
